As usually defined, the EC50 is the concentration that produces a half-maximal response.

Consider one compound from US20040186166A1, “Cannabinoid analogs as peroxisome proliferator activated nuclear receptor gamma activators” (priority 2002, published 2004).

SMILES strings stand for the structures. Where “and” joins values, the source holds several entries; their conditions need not be identical. Identical values can stand only once.

For data set [1] the following is noted: cited from earlier work.
The target of another data set is T1, Gal4-DBD/mPPARγ (Mus musculus, UniProt P37238).
T1 construct: expressed in transfected cells; host or cells: HEK293
T1 sequence (P37238 1-475 isoform P37238-2): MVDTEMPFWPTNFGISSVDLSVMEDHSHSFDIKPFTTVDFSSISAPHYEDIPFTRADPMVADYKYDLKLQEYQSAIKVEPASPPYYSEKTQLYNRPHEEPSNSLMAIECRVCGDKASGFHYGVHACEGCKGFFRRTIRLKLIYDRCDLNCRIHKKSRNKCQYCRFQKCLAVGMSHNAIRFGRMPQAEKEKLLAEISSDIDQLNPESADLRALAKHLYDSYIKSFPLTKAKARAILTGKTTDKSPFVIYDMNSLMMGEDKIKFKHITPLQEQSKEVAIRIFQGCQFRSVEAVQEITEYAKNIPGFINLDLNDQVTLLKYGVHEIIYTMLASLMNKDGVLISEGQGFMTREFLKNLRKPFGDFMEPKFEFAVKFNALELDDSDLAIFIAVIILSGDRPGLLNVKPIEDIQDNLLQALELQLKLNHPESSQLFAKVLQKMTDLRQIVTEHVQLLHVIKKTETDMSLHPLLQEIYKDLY
Kind of data set: Gal4-dependent MH100-Luc reporter, Gal4-DBD/mPPARγ. It counts as cell-based. The note with it: HEK293 cells. An excerpt: The-pCMX-Gal4-mPPARγ1 was constructed by fusing the mPPARγ1 coding sequence to the yeast GAL4 DNA binding domain (amino acid 1-147) in the pCMX vector. The AF-2 helix-truncated mutant of mPPARγ1 (PPARγ ΔAF2) was generated by PCR amplification-to introduce a stop codon and a NheI restriction site after amino acid 489, and then-subcloned into the pCMX vector. The PPRE-TK-LUC, MH100-TK-LUC-and DR1-TK-LUC reporters have been described previously (Forman et al., Cell 83:803-812, 1995; Umesono et al., Cell 65:1255-1266, 1991).
(§1) For PPARγ activation assay, HEK293 cells were plated in 12-well cell culture plates and maintained in Dulbecco's modified Eagle's medium (DMEM) supplemented with 10% fetal bovine serum (FBS) at 37° C. under 5% CO2. […] The average normalized luciferase activity was determined via triplicate experiments. […]
To further confirm activation of PPARγ by AJA, and also to determine PPARγ species specificity, the ability of AJA to activate the chimeric Gal4-DBD/PPAR fusion proteins on a Gal4-dependent MH100-Luc reporter was assessed (FIG. 4A). The PPARs were expressed as Gal4 DBD fusion proteins, which bind to the UAS promoter containing 4 copies of a synthetic Gal4 binding site upstream of the minimal thymidine kinase (TK) promoter. […]

In the next data set the test system is human IL-8 promoter. Kind of data set: IL-8 promoter luciferase assay, HeLa cells with PPARγ ΔAF2 mutant. The note with it: cells transfected with PPARγ ΔAF2 mutant. The format is cell-based. As for the experimental part: For PPARγ activation assay, HEK293 cells were plated in 12-well cell culture plates and maintained in Dulbecco's modified Eagle's medium (DMEM) supplemented with 10% fetal bovine serum (FBS) at 37° C. under 5% CO2. Cells were changed to phenol red-free DMEM supplemented with 10% charcoal-stripped fetal bovine serum 3 hours before transfection by a standard calcium-phosphate precipitation method. Twelve hours after transfection, the cells were washed with phosphate-buffered saline (PBS) and fed again with fresh medium containing the indicated concentrations of compounds. After 36 hours, cells were harvested for β-galactosidase and luciferase activities as described previously (Li et al., Proc Natl Acad Sci USA 94:8479-84, 1997). The average normalized luciferase activity was determined via triplicate experiments. For IL-8 promoter assay, HeLa cells were maintained and transfected in the same way as described above. After transfection, cells were recovered for 4 hours before treatment with AJA, GW347845, or solvent. […]
The IL-8 luciferase reporter controlled by the human IL-8 promoter (-97/-69) was cotransfected with mPPARγ or mPPARγ ΔAF2 mutant into HeLa cells. […] The involvement of PPARγ in regulating IL-8 promoter activity was determined by comparing the IL-8 promoter activity in the presence of wild type PPARγ or its ΔAF2 mutant. […]

A further data set addresses T2, human PPARα (Homo sapiens, UniProt Q07869).
T2 construct: The Gal4-hPPAR LBD constructs were obtained from GlaxoSmithKline; host or cells: HEK293
T2 sequence (Q07869 239-466 limits assumed): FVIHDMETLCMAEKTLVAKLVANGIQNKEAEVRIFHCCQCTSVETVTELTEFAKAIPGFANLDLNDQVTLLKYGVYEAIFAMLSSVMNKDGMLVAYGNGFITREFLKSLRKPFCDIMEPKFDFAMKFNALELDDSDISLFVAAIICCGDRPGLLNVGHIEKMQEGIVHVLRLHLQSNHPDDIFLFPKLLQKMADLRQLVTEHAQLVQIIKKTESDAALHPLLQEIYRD
The data set can be described thus: Gal4-dependent MH100-Luc reporter, human PPARα. It counts as cell-based. As for the experimental part: The pGEX-DRIP205 (527˜970) was obtained from the Sloan-Kettering Cancer Center. The Gal4-hPPAR LBD constructs were obtained from GlaxoSmithKline, Research Triangle Park, NC. The IL8-Luciferase reporter was obtained from Celgene, San Diego, Calif. The plasmids mPPARα, mPPARγ1, mPPARδ , and hRXRα were in the pCMX vector (Umesono et al., Cell 65:1255-1266, 1991).
as §1
To further confirm activation of PPARγ by AJA, and also to determine PPARγ species specificity, the ability of AJA to activate the chimeric Gal4-DBD/PPAR fusion proteins on a Gal4-dependent MH100-Luc reporter was assessed (FIG. 4A). The PPARs were expressed as Gal4 DBD fusion proteins, which bind to the UAS promoter containing 4 copies of a synthetic Gal4 binding site upstream of the minimal thymidine kinase (TK) promoter. […] Transfected cells were treated with increasing concentrations of AJA from 10-60 μM and the luciferase activities were determined in triplicate experiments. […]

As for `CCCCCCC(C)(C)c1cc(O)c2c(c1)OC(C)(C)[C@@H]1CC=C(C(=O)O)C[C@@H]21` [AJA, dimethylheptyl-THC-11-oic acid], in data set [1] (in vivo), the drug dependence entry is recorded as “did not exhibit drug dependence” and the mutagenesis result is given as “did not exhibit drug dependence or cause mutagenesis”. Besides, the ulcerogenicity entry in data set [1] (therapeutically relevant doses) is given as “totally non-ulcerogenic”. Also, at Gal4-DBD/mPPARγ (20 μM AJA), the “activation of Gal4-DBD/mPPARγ reporter gene expression” value is recorded as “activated the reporter gene expression significantly”. Besides, the EC50 on Gal4-DBD/mPPARγ (EC-50 for activation of PPARγ, estimated, 10-60 μM AJA, luciferase activity) was ~13 µM and 13 µM. The “effect on IL-8 promoter activity” value in the data set on human IL-8 promoter is reported as “no effect”. Moreover, at human PPARα, the “activation of human PPARα” value is given as “did not activate”.
